According to patent US6884802B2, “6-heteroarylphenanthridines” (ALTANA Pharma AG, priority 2000, dated 2005):

Test system: PDE4
Experiment: Inhibition of PDE4 activity ([3H]cAMP hydrolysis, cytosol from human neutrophils)
Format: biochemical
Conditions: 0.5 μM cAMP, Motapizone 1 μM included to suppress PDE3, 37° C.
Method: Method for Measuring Inhibition of PDE4 Activity
PDE4 activity was determined as described by Thompson et al. (Adv Cycl Nucl Res 10: 69-92, 1979) with some modifications (Bauer and Schwabe, Naunyn-Schmiedeberg's Arch Pharmacol 311: 193-198, 1980). At a final assay volume of 200 μl (96 well microtiter plates) the assay mixture contained 20 mM Tris (pH 7.4), 5 mM MgCl2, 0.5 μM cAMP, [^3H]cAMP (about 30,000 cpm/assay), the test compound and an aliquot of cytosol from human neutrophils which mainly contains PDE4 activity as described by Schudt et al. (Naunyn-Schmiedeberg's Arch Pharmacol 344: 682-690, 1991); the PDE3-specific inhibitor Motapizone (1 μM) was included to suppress PDE3 activity originating from contaminating platelets. Serial dilutions of the compounds were prepared in DMSO and further diluted 1:100 (v/v) in the assays to obtain the desired final concentrations of the inhibitors at a DMSO concentration of 1% (v/v) which by itself only slightly affected PDE4 activity.
After preincubation for 5 min at 37° C., the reaction was started by the addition of substrate (cAMP) and the assays were incubated for further 15 min at 37° C. 50 μl of 0.2 N HCl was added to stop the reaction and the assays were left on ice for about 10 min. Following incubation with 25 μg 5′-nucleotidase (Crotalus atrox snake venom) for 10 min at 37° C., the assays were loaded on QAE Sephadex A-25 (1 ml bed volume). The columns were eluted with 2 ml of 30 mM ammonium formiate (pH 6.0) and the eluate was counted for radioactivity. Results were corrected for blank values (measured in the presence of denatured protein) which were below 5% of total radioactivity. […] The IC50-values for the compounds according to the invention for the inhibition of the PDE4 activity were determined from the concentration-inhibition curves by nonlinear-regression.

Structure (SMILES)	Inhibition of PDE4 activity [measured as −logC50 (mol/l)]
COc1cc2c(cc1OC)[C@@H]1CCCC[C@@H]1N=C2c1ccc(C)s1 (relative stereo) [Compound 8, cis-8,9-Dimethoxy-6-(5-methyl-thiophen-2-yl)-1,2,3,4,4a,10b-hexahydrophenanthridine]	8.19 −log(mol/l)
COc1cc2c(cc1OC)[C@@H]1CCCC[C@@H]1N=C2c1cc2cccc(OC)c2o1 (relative stereo) [Compound 21, cis-8,9-Dimethoxy-6-(7-methoxy-benzofuran-2-yl)-1,2,3,4,4a,10b-hexahydrophenanthridine]	8.51 −log(mol/l)
COc1ccc2oc(C3=N[C@H]4CCCC[C@H]4c4cc(OC)c(OC)cc43)cc2c1 (relative stereo) [Compound 23, cis-8,9-Dimethoxy-6-(5-methoxy-benzofuran-2-yl)-1,2,3,4,4a,10b-hexahydrophenanthridine]	8.33 −log(mol/l)
COc1cc2c(cc1OC)[C@@H]1CCCC[C@@H]1N=C2c1cc2ccccc2s1 (relative stereo) [Compound 17, cis-8,9-Dimethoxy-6-(benzo[b]thiophen-2-yl)-1,2,3,4,4a,10b-hexahydrophenanthridine]	8.84 −log(mol/l)
COc1cc2c(cc1OC)[C@@H]1CCCC[C@@H]1N=C2c1ccnc2ccccc12 [Compound 1, (−)-cis-8,9-Dimethoxy-6-quinolin-4-yl-1,2,3,4,4a,10b-hexahydrophenanthridine]	7.4 −log(mol/l)
COc1cc2c(cc1OC)[C@@H]1CCCC[C@@H]1N=C2c1cccs1 (relative stereo) [Compound 7, cis-8,9-Dimethoxy-6-(thiophen-2-yl)-1,2,3,4,4a,10b-hexahydrophenanthridine]	8.14 −log(mol/l)
COc1ccc2cc(C3=N[C@H]4CCCC[C@H]4c4cc(OC)c(OC)cc43)[nH]c2c1.O=C(O)C(F)(F)F (relative stereo) [Compound 12, cis-8,9-Dimethoxy-6-(6-methoxy-1H-indol-2-yl)-1,2,3,4,4a,10b-hexahydrophenanthridine trifluoroacetate]	8.27 −log(mol/l)
COc1cc2c(cc1OC)[C@@H]1CCCC[C@@H]1N=C2c1occc1C (relative stereo) [Compound 16, cis-8,9-Dimethoxy-6-(3-methyl-furan-2-yl)-1,2,3,4,4a,10b-hexahydrophenanthridine]	7.42 −log(mol/l)
COc1cc2c(cc1OC)[C@@H]1CCCC[C@@H]1N=C2c1ccsc1 (relative stereo) [Compound 9, cis-8,9-Dimethoxy-6-(thiophen-3-yl)-1,2,3,4,4a,10b-hexahydrophenanthridine]	7.45 −log(mol/l)
COc1cc2c(cc1OC)[C@@H]1CCCC[C@@H]1N=C2c1ccc2ccccc2n1 (relative stereo) [Compound 15, cis-8,9-Dimethoxy-6-(quinolin-2-yl)-1,2,3,4,4a,10b-hexahydrophenanthridine]	7.68 −log(mol/l)
COc1cc2c(cc1OC)[C@@H]1CCCC[C@@H]1N=C2c1cc2ccccc2[nH]1.O=C(O)C(F)(F)F (relative stereo) [Compound 10, cis-8,9-Dimethoxy-6-(1H-indol-2-yl)-1,2,3,4,4a,10b-hexahydrophenanthridine trifluoroacetate]	8.19 −log(mol/l)
COc1cc2c(cc1OC)[C@@H]1CCCC[C@@H]1N=C2c1cc2cc(F)ccc2[nH]1.O=C(O)C(F)(F)F (relative stereo) [Compound 11, cis-8,9-Dimethoxy-6-(5-fluoro-1H-indol-2-yl)-1,2,3,4,4a,10b-hexahydrophenanthridine trifluoroacetate]	8.14 −log(mol/l)
COc1cc2c(cc1OC)[C@@H]1CCCC[C@@H]1N=C2c1oc2ccccc2c1C (relative stereo) [Compound 20, cis-8,9-Dimethoxy-6-(3-methyl-benzofuran-2-yl)-1,2,3,4,4a,10b-hexahydrophenanthridine]	8.53 −log(mol/l)
